In US10604512B2, “3-(1H-indol-2-yl)-1H-indazoles and therapeutic uses thereof” (Samumed, LLC, priority 2015, dated 2020):
pEC50: −log10 of the molar value.

Key:
Type in all cases: cell-based
[1] = tested on: Primary human fibroblasts derived from IPF patients (LL29 cells) treated with TGF-β1; assay: Inhibition of the fibrotic process: αSMA staining in TGF-β1-treated primary human fibroblasts from IPF patients (LL29 cells); conditions: Fibroblast, 96 h, % αSMA-positive LL29 cells, TGF-β1 20 ng/mL, 4 days
From the text: Representative compounds were screened using primary human fibroblasts (derived from IPF patients) treated with TGF-β1 to determine their ability to inhibit the fibrotic process.
Primary human fibroblasts derived from IPF patients (LL29 cells) [^1Xiaoqiu Liu, et. al., “Fibrotic Lung Fibroblasts Show Blunted Inhibition by cAMP Due to Deficient cAMP Response Element-Binding Protein Phosphorylation”, Journal of Pharmacology and Experimental Therapeutics (2005), 315(2), 678-687; ^2Watts, K. L., et. al., “RhoA signaling modulates cyclin D1 expression in human lung fibroblasts; implications for idiopathic pulmonary fibrosis”, Respiratory Research (2006), 7(1), 88] were obtained from American Type Culture Collection (ATCC) and expanded in F12 medium supplemented with 15% Fetal Bovine Serum and Penicillin/Streptomycin.
Each compound was dissolved in DMSO as a 10 mM stock and used to prepare compound source plates. Serial dilution (1:2, 11-point dose-response curves from 10 μM to […]) and compound transfer was performed using the ECHO 550 (Labcyte, Sunnyvale, Calif.) into 384-well clear bottom assay plates (Greiner Bio-One) with appropriate DMSO backfill for a final DMSO concentration of 0.1%. LL29 cells are plated at 1,500 cells/well in 80 μL/well F12 medium supplemented with 1% Fetal Bovine Serum. One hour after addition of the cells, TGF-β1 (Peprotech; 20 ng/mL) was added to the plates to induce fibrosis (ref 1 and 2 above). Wells treated with TGF-β1 and containing DMSO were used as controls. Cells were incubated at 37° C. and 5% CO2 for 4 days. Following incubation for 4 days, SYTOX green nucleic acid stain (Life Technologies [Thermo Fisher Scientific]) was added to the wells at a final concentration of 1 μM and incubated at room temperature for 30 min. Cells were then fixed using 4% formaldehyde (Electron Microscopy Sciences), washed 3 times with PBS followed by blocking and permeabilization using 3% Bovine Serum Albumin (BSA; Sigma) and 0.3% Triton X-100 (Sigma) in PBS. Cells were then stained with antibody specific to α-smooth muscle actin (αSMA; Abcam) (ref 1 and 2 above) in 3% Bovine Serum Albumin (BSA; Sigma) and 0.3% Triton X-100 (Sigma) in PBS, and incubated overnight at 4° C. Cells were then washed 3 times with PBS, followed by incubation with Alexa Flor-647 conjugated secondary antibody (Life Technologies [Thermo Fisher Scientific]) and DAPI at room temperature for 1 hour. Cells were then washed 3 times with PBS and plates were sealed for imaging. αSMA staining was imaged by excitation at 630 nm and emission at 665 nm and quantified using the Compartmental Analysis program on the CellInsight CX5 (Thermo Scientific). Dead or apoptotic cells were excluded from analysis based on positive SYTOX green staining. % of total cells positive for αSMA were counted in each well and normalized to the average of 11 wells treated with TGF-β1 on the same plate using Dotmatics' Studies Software. The normalized averages (fold change over untreated) of 3 replicate wells for each compound concentration were used to create dose-responses curves and EC50 values were calculated using non-linear regression curve fit in the Dotmatics' Studies Software. For EC50 of >10 μM, the percent inhibition at 10 μM is provided.

IL-6 = assay: Inhibition of IL-6 in LPS-stimulated THP-1 human monocyte cells (HTRF); conditions: IL-6 inhibition, LPS-stimulated THP-1 cells, HTRF
Experimental: Human monocyte cell line (THP-1 cells; Catalog # TIB-202, ATCC, Manassas, Va.) were cultured in Roswell Park Memorial Institute (RPMI) 1640 Medium (Catalog #21870-100, Buffalo, N.Y.) with 1% L-glutamine, 1% HEPES, 1% Sodium Pyruvate, 2% Sodium Bicarbonate supplemented with 100 units/mL penicillin, 50 μg/mL streptomycin, 2-mercaptoethanol (0.05 mM) [basal medium] and 10% fetal bovine serum (Catalog #16140089, Life Technologies, Carlsbad, Calif.) at 37° C. and 5% CO2.
THP-1 cells were cultured in basal media with 1% FBS for 24 hours before the start of the assay. Each compound was dissolved in DMSO as a 10 mM stock and used to prepare compound source plates. Serial dilution (1:3, 10-point dose-response curves starting from 10 μM) and compound transfer was performed using the ECHO 550 (Labcyte, Sunnyvale, Calif.) into 384-well white low volume assay plates (Greiner Bio-One) with appropriate DMSO backfill for a final DMSO concentration of 0.1%. THP-1 cells were plated at 5000 cells/well in the 384-well plates and incubated at 37° C. for 2 h. 500 ng/mL of LPS was added after 2 hours and cells were incubated for another 22 hours at 37° C. Plates were spun in a centrifuge for 1 minute at […] and a mixture of anti-IL6 XL665, and anti-IL6 Cryptate diluted in reconstitution buffer (Cisbio Inc.) was added to each well. Following incubation for 3 hrs at room temperature, Homogeneous Time-Resolved Fluorescence (HTRF) was measured using the Envision (Perkin Elmer) at 665 nm and […]. The ratio of fluorescence at 665 nm to 620 nm was used as a readout for IL6 quantification. All samples were processed in duplicate. Readings were normalized to DMSO treated cells and normalized activities were utilized for EC50 calculations using the dose-response log (inhibitor) vs. response variable slope (four parameters) nonlinear regression feature available in GraphPad Prism 5.0 (or Dotmatics). For EC50 of >10 μM, the percent inhibition at 10 μM is provided.

SW480 colon cancer cells = assay: Cell viability assay (CellTiter-Blue) in SW480 colon cancer cells; conditions: Homo sapiens, 96 h, four days, CellTiter-Blue
Experimental: Representative compounds were screened using the following assay procedure to assess the effect on cell viability as described below.
Each compound was dissolved in DMSO as a 10 mM stock and used to prepare compound source plates. Serial dilution (1:3, 8-point dose-response curves from 10 μM to 0.0045 μM) and compound transfer was performed using the ECHO 550 (Labcyte, Sunnyvale, Calif.) into 96-well clear bottom, black-walled plates (Corning-Costar).
Approximately 2×10^3 SW480 colon cancer cells were seeded into each well and allowed to incubate in the presence or absence of compound for four days at 37° C./5% CO2. Eight replicates of DMSO-treated cells served as controls and cells treated with compound were performed in duplicate.
After incubation, 20 μL of CellTiter-Blue (Promega) was added to each well allowed to incubate for approximately 3 hours. This reagent was a buffered solution which contains resazurin, metabolically active cells were able to reduce rezarurin (blue) into resorufin (pink) which was highly fluorescent. This measured fluorescence was used as a readout for cell viability.
After incubation, the plates were read at Ex 560 nm Em 590 nm (Cytation 3, BioTek). Dose-response curves were generated and EC50 concentration values were calculated using non-linear regression curve fit in the GraphPad Prism (San Diego, Calif.) or Dotmatics' Studies Software (Bishops Stortford, UK). For EC50 of >10 μM, the percent inhibition at 10 μM is provided.

[2] = tested on: Wnt activity (Sp5-Luc reporter, TCF/LEF binding sites) in SW480 colon carcinoma cells; assay: Screening assay for Wnt activity: Sp5-Luc reporter gene assay in stably transduced SW480 colon carcinoma cells; conditions: Homo sapiens, overnight incubation, 10-point curve from 10 μM
From the text: The screening assay for Wnt activity is described as follows. Reporter cell lines can be generated by stably transducing cancer cell lines (e.g., colon cancer) or primary cells (e.g., IEC-6 intestinal cells) with a lentiviral construct that includes a Wnt-responsive promoter driving expression of the firefly luciferase gene.
SW480 colon carcinoma cells were transduced with a lentiviral vector expressing luciferase with a human Sp5 promoter consisting of a sequence of eight TCF/LEF binding sites. SW480 cells stably expressing the Sp5-Luc reporter gene and a hygromycin resistance gene were selected by treatment with 150 μg/mL of hygromycin for 7 days. These stably transduced SW480 cells were expanded in cell culture and used for all further screening activities. Each compound was dissolved in DMSO as a 10 mM stock and used to prepare compound source plates. Serial dilution (1:3, 10-point dose-response curves starting from 10 μM) and compound transfer was performed using the ECHO 550 (Labcyte, Sunnyvale, Calif.) into 384-well white solid bottom assay plates (Greiner Bio-One) with appropriate DMSO backfill for a final DMSO concentration of 0.1%. For Sp5-Luc reporter gene assays, the cells were plated at 4,000 cells/well in 384-well plates with medium containing 1% fetal bovine serum and incubated overnight at 37° C. and 5% CO2. Following incubation, 20 μl of BrightGlo luminescence reagent (Promega) was added to each well of the 384-well assay plates. The plates were placed on an orbital shaker for 2 min and then luminescence was quantified using the Envision (Perkin Elmer) plate reader. Readings were normalized to DMSO only treated cells, and normalized activities were utilized for EC50 calculations using the dose-response log (inhibitor) vs. response variable slope (four parameters) nonlinear regression feature available in GraphPad Prism 5.0 (or Dotmatics). For EC50 of >10 μM, the percent inhibition at 10 μM is provided.

Compound	pEC50 [1]	pEC50 (IL-6)	pEC50 (SW480 colon cancer cells)	pEC50 [2]
CC(C)Nc1cncc(-c2ccc3[nH]nc(-c4cc5c(N6CCN(C)CC6)cccc5[nH]4)c3c2)c1 [Compound 236, N-Isopropyl-5-(3-(4-(4-methylpiperazin-1-yl)-1H-indol-2-yl)-1H-indazol-5-yl)pyridin-3-amine]	6.12	6.60	6.17	6.45
CCCCC(=O)Nc1cncc(-c2ccc3[nH]nc(-c4cc5c(N6CCN(C)CC6)cccc5[nH]4)c3c2)c1 [Compound 243, N-(5-(3-(4-(4-Methylpiperazin-1-yl)-1H-indol-2-yl)-1H-indazol-5-yl)pyridin-3-yl)pentanamide]	5.90	7.82	5.74	6.18
CN1CCN(c2cccc3[nH]c(-c4n[nH]c5ccc(-c6cncc(CN7CCC(F)(F)C7)c6)cc45)cc23)CC1 [Compound 250, 5-(5-((3,3-Difluoropyrrolidin-1-yl)methyl)pyridin-3-yl)-3-(4-(4-methylpiperazin-1-yl)-1H-indol-2-yl)-1H-indazole]	6.44	7.00	6.13	6.54
Nc1cncc(-c2ccc3[nH]nc(-c4cc5c(-c6ccsc6)cccc5[nH]4)c3c2)c1 [Compound 283, 5-(3-(4-(Thiophen-3-yl)-1H-indol-2-yl)-1H-indazol-5-yl)pyridin-3-amine]	6.09	6.74	6.95	7.40
CN(C)c1cncc(-c2ccc3[nH]nc(-c4cc5c(-c6ccoc6)cccc5[nH]4)c3c2)c1 [Compound 315, 5-(3-(4-(Furan-3-yl)-1H-indol-2-yl)-1H-indazol-5-yl)-N,N-dimethylpyridin-3-amine]	5.37	6.70	6.20	6.35
c1cc(-c2ccoc2)c2cc(-c3n[nH]c4ccc(-c5cncc(CN6CCCCC6)c5)cc34)[nH]c2c1 [Compound 323, 3-(4-(Furan-3-yl)-1H-indol-2-yl)-5-(5-(piperidin-1-ylmethyl)pyridin-3-yl)-1H-indazole]	6.14	6.23	6.35	6.73
FC1(F)CCN(Cc2cncc(-c3ccc4[nH]nc(-c5cc6c(-c7ccoc7)cccc6[nH]5)c4c3)c2)C1 [Compound 334, 5-(5-((3,3-Difluoropyrrolidin-1-yl)methyl)pyridin-3-yl)-3-(4-(furan-3-yl)-1H-indol-2-yl)-1H-indazole]	6.81	6.32	6.33	6.74
O=C(Nc1cncc(-c2ccc3[nH]nc(-c4cc5c(-c6cccs6)cccc5[nH]4)c3c2)c1)C1CCCC1 [Compound 358, N-(5-(3-(4-(Thiophen-2-yl)-1H-indol-2-yl)-1H-indazol-5-yl)pyridin-3-yl) cyclopentanecarboxamide]	7.68	6.14	5.96	5.91
FC1(F)CCN(Cc2cncc(-c3ccc4[nH]nc(-c5cc6c(-c7cccs7)cccc6[nH]5)c4c3)c2)C1 [Compound 362, 5-(5-((3,3-Difluoropyrrolidin-1-yl)methyl)pyridin-3-yl)-3-(4-(thiophen-2-yl)-1H-indol-2-yl)-1H-indazole]	6.21	6.43	5.51	6.32
CC(C)CC(=O)Nc1cncc(-c2ccc3[nH]nc(-c4cc5c(-c6cc(F)cc(NCCN(C)C)c6)cccc5[nH]4)c3c2)c1 [Compound 450, N-(5-(3-(4-(3-((2-(Dimethylamino)ethyl)amino)-5-fluorophenyl)-1H-indol-2-yl)-1H-indazol-5-yl)pyridin-3-yl)-3-methylbutanamide]	6.72	5.89	6.52	6.86
Cc1ccncc1-c1ccc2[nH]nc(-c3cc4c(-c5cc(F)cc(NCCN(C)C)c5)cccc4[nH]3)c2c1 [Compound 453, N^1-(3-Fluoro-5-(2-(5-(4-methylpyridin-3-yl)-1H-indazol-3-yl)-1H-indol-4-yl)phenyl)-N^2,N^2-dimethylethane-1,2-diamine]	5.75	6.61	6.19	6.58
